Reference: PubChem BioAssay AID2060907 (Molecular Pharmacology Branch, DTP, NCI, 2025)

Tested on: 388556-164-R-J1-PDC complex spheroid viability
Test: Anticancer human tumor 388556-164-R-J1-PDC patient-derived colon adenocarcinoma cell line growth inhibition [RAS]
Details: for IC50: curve of first compound; for viability, T/C: stronger effect = lower value
How it was run: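 Multi-cell-type spheroids: tumor cells plus HUVEC endothelial cells and mesenchymal stem cells. RAS-pathway inhibitors were combined with targeted agents, each dosed in half-log steps down from clinical Cmax, or from 10 microM when Cmax was unknown.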

[1] = second compound 0.000949 µM, first compound 0.0316 µM
[2] = second compound 0.000949 µM, first compound 0.1 µM
[3] = second compound 0.000949 µM, first compound 0.316 µM
[4] = second compound 0.000949 µM, first compound 1 µM
[5] = second compound 0.003 µM, first compound 0.0316 µM
[6] = second compound 0.003 µM, first compound 0.1 µM
[7] = second compound 0.003 µM, first compound 0.316 µM
[8] = second compound 0.003 µM, first compound 1 µM
[9] = second compound 0.00949 µM, first compound 0.0316 µM
[10] = second compound 0.00949 µM, first compound 0.1 µM
[11] = second compound 0.00949 µM, first compound 0.316 µM
[12] = second compound 0.00949 µM, first compound 1 µM
[13] = second compound 0.03 µM, first compound 0.0316 µM
[14] = second compound 0.03 µM, first compound 0.1 µM
[15] = second compound 0.03 µM, first compound 0.316 µM
[16] = second compound 0.03 µM, first compound 1 µM
[17] = second compound 0.0949 µM, first compound 0.0316 µM
[18] = second compound 0.0949 µM, first compound 0.1 µM
[19] = second compound 0.0949 µM, first compound 0.316 µM
[20] = second compound 0.0949 µM, first compound 1 µM
[21] = second compound 0.3 µM, first compound 0.0316 µM
[22] = second compound 0.3 µM, first compound 0.1 µM
[23] = second compound 0.3 µM, first compound 0.316 µM
[24] = second compound 0.3 µM, first compound 1 µM
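Also: spheroids exposed to compound for 7 days before readout.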
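For viability, T/C in this document: 100% = DMSO vehicle control luminescence.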

CC(=O)OC12COC1CC(O)C1(C)C(=O)C(O)C3=C(C)C(OC(=O)C(O)C(NC(=O)OC(C)(C)C)c4ccccc4)CC(O)(C(OC(=O)c4ccccc4)C21)C3(C)C (stereo unspecified) + CCn1c(-c2cc(N3CCN(C)CC3)cnc2C(C)OC)c2c3cc(ccc31)-c1csc(n1)CC(NC(=O)C1CC1C)C(=O)N1CCCC(N1)C(=O)OCC(C)(C)C2
IC50 (second compound 0.000949 µM): > 10000 nM
IC50 (second compound 0.003 µM): > 10000 nM
IC50 (second compound 0.00949 µM): 510 nM
IC50 (second compound 0.03 µM): < 31.6 nM
IC50 (second compound 0.0949 µM): < 31.6 nM
IC50 (second compound 0.3 µM): < 31.6 nM
viability, T/C [1]: 77.2%
viability, T/C [2]: 63.2%
viability, T/C [3]: 63.7%
viability, T/C [4]: 66.1%
viability, T/C (second compound 0.000949 µM, first compound 3.16 µM): 69.2%
viability, T/C (second compound 0.000949 µM, first compound 10 µM): 59.6%
viability, T/C [5]: 76.4%
viability, T/C [6]: 61.6%
viability, T/C [7]: 54%
viability, T/C [8]: 59.1%
viability, T/C (second compound 0.003 µM, first compound 3.16 µM): 55.1%
viability, T/C (second compound 0.003 µM, first compound 10 µM): 50.4%
viability, T/C [9]: 65.3%
viability, T/C [10]: 57.1%
viability, T/C [11]: 52.8%
viability, T/C [12]: 43.9%
viability, T/C (second compound 0.00949 µM, first compound 3.16 µM): 50.4%
viability, T/C (second compound 0.00949 µM, first compound 10 µM): 41.2%
viability, T/C [13]: 46.9%
viability, T/C [14]: 42.3%
viability, T/C [15]: 40.1%
viability, T/C [16]: 44.1%
viability, T/C (second compound 0.03 µM, first compound 3.16 µM): 41.2%
viability, T/C (second compound 0.03 µM, first compound 10 µM): 32%
viability, T/C [17]: 44.1%
viability, T/C [18]: 34.9%
viability, T/C [19]: 34.9%
viability, T/C [20]: 32.4%
viability, T/C (second compound 0.0949 µM, first compound 3.16 µM): 31.1%
viability, T/C (second compound 0.0949 µM, first compound 10 µM): 25.4%
viability, T/C [21]: 27.4%
viability, T/C [22]: 27.9%
viability, T/C [23]: 28%
viability, T/C [24]: 30.1%
viability, T/C (second compound 0.3 µM, first compound 3.16 µM): 27.8%
viability, T/C (second compound 0.3 µM, first compound 10 µM): 24.4%

CCc1c2c(nc3ccc(O)cc13)-c1cc3c(c(=O)n1C2)COC(=O)[C@]3(O)CC + CCn1c(-c2cc(N3CCN(C)CC3)cnc2C(C)OC)c2c3cc(ccc31)-c1csc(n1)CC(NC(=O)C1CC1C)C(=O)N1CCCC(N1)C(=O)OCC(C)(C)C2
IC50 (second compound 0.000949 µM): 46.6 nM
IC50 (second compound 0.003 µM): 28.1 nM
IC50 (second compound 0.00949 µM): 19.6 nM
IC50 (second compound 0.03 µM): 7.33 nM
IC50 (second compound 0.0949 µM): < 0.949 nM
IC50 (second compound 0.3 µM): < 0.949 nM
viability, T/C (second compound 0.000949 µM, first compound 0.000949 µM): 90.3%
viability, T/C (second compound 0.000949 µM, first compound 0.003 µM): 89.5%
viability, T/C (second compound 0.000949 µM, first compound 0.00949 µM): 66.3%
viability, T/C (second compound 0.000949 µM, first compound 0.03 µM): 56%
viability, T/C (second compound 0.000949 µM, first compound 0.0949 µM): 42.1%
viability, T/C (second compound 0.000949 µM, first compound 0.3 µM): 23.5%
viability, T/C (second compound 0.003 µM, first compound 0.000949 µM): 89.9%
viability, T/C (second compound 0.003 µM, first compound 0.003 µM): 83.6%
viability, T/C (second compound 0.003 µM, first compound 0.00949 µM): 67.5%
viability, T/C (second compound 0.003 µM, first compound 0.03 µM): 46.3%
viability, T/C (second compound 0.003 µM, first compound 0.0949 µM): 36.4%
viability, T/C (second compound 0.003 µM, first compound 0.3 µM): 21.8%
viability, T/C (second compound 0.00949 µM, first compound 0.000949 µM): 82.2%
viability, T/C (second compound 0.00949 µM, first compound 0.003 µM): 78.4%
viability, T/C (second compound 0.00949 µM, first compound 0.00949 µM): 55.7%
viability, T/C (second compound 0.00949 µM, first compound 0.03 µM): 41.8%
viability, T/C (second compound 0.00949 µM, first compound 0.0949 µM): 36.5%
viability, T/C (second compound 0.00949 µM, first compound 0.3 µM): 18.7%
viability, T/C (second compound 0.03 µM, first compound 0.000949 µM): 58.2%
viability, T/C (second compound 0.03 µM, first compound 0.003 µM): 55.5%
viability, T/C (second compound 0.03 µM, first compound 0.00949 µM): 50.5%
viability, T/C (second compound 0.03 µM, first compound 0.03 µM): 37.8%
viability, T/C (second compound 0.03 µM, first compound 0.0949 µM): 30.2%
viability, T/C (second compound 0.03 µM, first compound 0.3 µM): 16.6%
viability, T/C (second compound 0.0949 µM, first compound 0.000949 µM): 44.3%
viability, T/C (second compound 0.0949 µM, first compound 0.003 µM): 39.1%
viability, T/C (second compound 0.0949 µM, first compound 0.00949 µM): 48.9%
viability, T/C (second compound 0.0949 µM, first compound 0.03 µM): 30.1%
viability, T/C (second compound 0.0949 µM, first compound 0.0949 µM): 25.9%
viability, T/C (second compound 0.0949 µM, first compound 0.3 µM): 14.3%
viability, T/C (second compound 0.3 µM, first compound 0.000949 µM): 32.4%
viability, T/C (second compound 0.3 µM, first compound 0.003 µM): 31.5%
viability, T/C (second compound 0.3 µM, first compound 0.00949 µM): 28.2%
viability, T/C (second compound 0.3 µM, first compound 0.03 µM): 30.1%
viability, T/C (second compound 0.3 µM, first compound 0.0949 µM): 21.2%
viability, T/C (second compound 0.3 µM, first compound 0.3 µM): 11.5%

Nc1ccn(C2OC(CO)C(O)C2(F)F)c(=O)n1 (stereo unspecified) + CCn1c(-c2cc(N3CCN(C)CC3)cnc2C(C)OC)c2c3cc(ccc31)-c1csc(n1)CC(NC(=O)C1CC1C)C(=O)N1CCCC(N1)C(=O)OCC(C)(C)C2
IC50 (second compound 0.000949 µM): > 1000 nM
IC50 (second compound 0.003 µM): > 1000 nM
IC50 (second compound 0.00949 µM): > 1000 nM
IC50 (second compound 0.03 µM): 90.2 nM
IC50 (second compound 0.0949 µM): < 3.16 nM
IC50 (second compound 0.3 µM): < 3.16 nM
viability, T/C (second compound 0.000949 µM, first compound 0.00316 µM): 88.9%
viability, T/C (second compound 0.000949 µM, first compound 0.01 µM): 93.5%
viability, T/C [1]: 76.6%
viability, T/C [2]: 73.6%
viability, T/C [3]: 67.1%
viability, T/C [4]: 71.1%
viability, T/C (second compound 0.003 µM, first compound 0.00316 µM): 101%
viability, T/C (second compound 0.003 µM, first compound 0.01 µM): 84%
viability, T/C [5]: 70%
viability, T/C [6]: 65%
viability, T/C [7]: 65.3%
viability, T/C [8]: 61.8%
viability, T/C (second compound 0.00949 µM, first compound 0.00316 µM): 80.1%
viability, T/C (second compound 0.00949 µM, first compound 0.01 µM): 62.9%
viability, T/C [9]: 60.7%
viability, T/C [10]: 57.8%
viability, T/C [11]: 56.9%
viability, T/C [12]: 52.7%
viability, T/C (second compound 0.03 µM, first compound 0.00316 µM): 72%
viability, T/C (second compound 0.03 µM, first compound 0.01 µM): 53.4%
viability, T/C [13]: 56.5%
viability, T/C [14]: 47.1%
viability, T/C [15]: 52.3%
viability, T/C [16]: 46.1%
viability, T/C (second compound 0.0949 µM, first compound 0.00316 µM): 42.1%
viability, T/C (second compound 0.0949 µM, first compound 0.01 µM): 46.2%
viability, T/C [17]: 40.6%
viability, T/C [18]: 38.6%
viability, T/C [19]: 40.6%
viability, T/C [20]: 36.4%
viability, T/C (second compound 0.3 µM, first compound 0.00316 µM): 33.9%
viability, T/C (second compound 0.3 µM, first compound 0.01 µM): 35%
viability, T/C [21]: 32.5%
viability, T/C [22]: 30.1%
viability, T/C [23]: 31.4%
viability, T/C [24]: 28.8%
